What was measured:
rat A1 receptors = target: T1, rat A1 receptors (Rattus norvegicus, UniProt P25099); experiment: Radioligand binding at rat A1 adenosine receptors
T1 sequence (P25099 1-326): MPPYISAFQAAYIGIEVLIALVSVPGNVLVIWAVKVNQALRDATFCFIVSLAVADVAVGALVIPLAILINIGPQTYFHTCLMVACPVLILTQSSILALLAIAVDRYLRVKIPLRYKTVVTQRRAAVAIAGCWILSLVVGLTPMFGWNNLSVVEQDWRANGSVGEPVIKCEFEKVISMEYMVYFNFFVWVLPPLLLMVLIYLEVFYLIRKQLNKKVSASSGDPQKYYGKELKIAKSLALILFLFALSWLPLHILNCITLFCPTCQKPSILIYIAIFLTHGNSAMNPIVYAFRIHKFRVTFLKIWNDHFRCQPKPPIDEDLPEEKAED

A2A receptors = A2A receptors (Homo sapiens, UniProt P29274); experiment: Radioligand binding at human A2A adenosine receptors, values marked (h); conditions: absence of ADA, read-out: K1 (nM), A2A (h)
Chain of A2A receptors (P29274 whole entry): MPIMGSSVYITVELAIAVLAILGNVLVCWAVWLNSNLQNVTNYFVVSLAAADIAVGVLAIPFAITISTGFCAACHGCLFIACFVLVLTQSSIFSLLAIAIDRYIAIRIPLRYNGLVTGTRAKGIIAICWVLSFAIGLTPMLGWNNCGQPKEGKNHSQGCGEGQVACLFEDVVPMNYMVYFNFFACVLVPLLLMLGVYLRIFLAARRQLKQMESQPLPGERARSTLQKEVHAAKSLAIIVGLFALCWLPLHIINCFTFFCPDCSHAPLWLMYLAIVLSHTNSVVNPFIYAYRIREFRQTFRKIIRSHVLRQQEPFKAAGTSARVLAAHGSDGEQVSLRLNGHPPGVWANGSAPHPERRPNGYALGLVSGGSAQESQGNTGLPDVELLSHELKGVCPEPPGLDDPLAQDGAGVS

human A2B receptor = target: T2, human A2B receptor (Homo sapiens, UniProt P29275); experiment: Radioligand binding at human A2B receptor using [3H]ZM 241,385; conditions: at 50 μM, absence of ADA
T2 sequence (P29275 1-332): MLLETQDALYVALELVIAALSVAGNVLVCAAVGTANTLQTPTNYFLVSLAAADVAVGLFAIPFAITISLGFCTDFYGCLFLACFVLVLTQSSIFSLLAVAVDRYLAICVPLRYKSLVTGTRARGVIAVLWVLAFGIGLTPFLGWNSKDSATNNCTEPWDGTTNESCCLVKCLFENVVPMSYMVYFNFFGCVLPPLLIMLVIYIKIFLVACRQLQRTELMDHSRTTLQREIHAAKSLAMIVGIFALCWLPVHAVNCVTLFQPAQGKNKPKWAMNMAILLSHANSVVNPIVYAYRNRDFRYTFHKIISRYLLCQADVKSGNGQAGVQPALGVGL

human A3 receptors = target: T3, human A3 receptors (Homo sapiens, UniProt P0DMS8); experiment: A3 adenosine receptor binding using [125I]AB-MECA, transfected CHO cell membranes; conditions: for Ki: human A3 receptors, absence of ADA, read-out: K1 (nM), hA3; for A1/A3: ratio of Ki at rat A1 to Ki at A3 (human, or rat where marked (r))
T3 sequence (P0DMS8 1-318): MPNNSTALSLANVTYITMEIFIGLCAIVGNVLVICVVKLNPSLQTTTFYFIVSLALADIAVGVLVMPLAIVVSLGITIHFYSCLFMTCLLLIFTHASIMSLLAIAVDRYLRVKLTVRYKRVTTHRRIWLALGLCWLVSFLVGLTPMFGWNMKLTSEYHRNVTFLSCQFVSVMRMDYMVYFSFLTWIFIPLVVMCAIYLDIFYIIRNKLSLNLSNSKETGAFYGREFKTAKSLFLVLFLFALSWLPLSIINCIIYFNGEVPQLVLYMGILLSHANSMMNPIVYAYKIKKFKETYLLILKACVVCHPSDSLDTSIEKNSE

[1] = system: adenosine deaminase (ADA); experiment: Deamination by adenosine deaminase (ADA); format: biochemical; conditions: for relative rates of deamination: ADA, 5a set to 100
[2] = target: human and turkey P2Y1 receptors; conditions: competitive antagonist; cited from earlier work
P2X1 receptors = target: T4, P2X1 receptors (Homo sapiens, UniProt P51575); conditions: cited from earlier work
T4 sequence (P51575 1-399): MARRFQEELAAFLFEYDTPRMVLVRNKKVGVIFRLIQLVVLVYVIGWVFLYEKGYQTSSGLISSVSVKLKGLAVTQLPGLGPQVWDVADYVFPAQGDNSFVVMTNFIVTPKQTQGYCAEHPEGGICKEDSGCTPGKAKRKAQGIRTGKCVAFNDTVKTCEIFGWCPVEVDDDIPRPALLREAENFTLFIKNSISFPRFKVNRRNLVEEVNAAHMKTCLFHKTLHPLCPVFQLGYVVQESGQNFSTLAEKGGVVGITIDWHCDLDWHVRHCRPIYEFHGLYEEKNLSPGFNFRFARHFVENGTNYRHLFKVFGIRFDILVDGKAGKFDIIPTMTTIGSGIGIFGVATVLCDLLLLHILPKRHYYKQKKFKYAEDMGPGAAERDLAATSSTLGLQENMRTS

P2Y2 = P2Y2 (Homo sapiens, UniProt P41231); conditions: cited from earlier work
Chain of P2Y2 (P41231 whole entry, species assumed): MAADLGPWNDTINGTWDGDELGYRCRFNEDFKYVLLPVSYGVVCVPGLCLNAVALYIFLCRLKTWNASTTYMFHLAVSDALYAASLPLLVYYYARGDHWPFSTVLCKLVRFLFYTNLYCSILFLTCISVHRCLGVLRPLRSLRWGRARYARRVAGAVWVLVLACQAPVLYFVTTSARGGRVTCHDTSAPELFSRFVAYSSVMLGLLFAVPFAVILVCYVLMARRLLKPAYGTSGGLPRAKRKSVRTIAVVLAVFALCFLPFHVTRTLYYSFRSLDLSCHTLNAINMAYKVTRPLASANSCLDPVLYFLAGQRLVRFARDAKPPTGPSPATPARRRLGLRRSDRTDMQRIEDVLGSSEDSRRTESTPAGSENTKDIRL

P2Y4 = P2Y4 (Homo sapiens, UniProt P51582); conditions: cited from earlier work
Chain of P2Y4 (P51582 whole entry, species assumed): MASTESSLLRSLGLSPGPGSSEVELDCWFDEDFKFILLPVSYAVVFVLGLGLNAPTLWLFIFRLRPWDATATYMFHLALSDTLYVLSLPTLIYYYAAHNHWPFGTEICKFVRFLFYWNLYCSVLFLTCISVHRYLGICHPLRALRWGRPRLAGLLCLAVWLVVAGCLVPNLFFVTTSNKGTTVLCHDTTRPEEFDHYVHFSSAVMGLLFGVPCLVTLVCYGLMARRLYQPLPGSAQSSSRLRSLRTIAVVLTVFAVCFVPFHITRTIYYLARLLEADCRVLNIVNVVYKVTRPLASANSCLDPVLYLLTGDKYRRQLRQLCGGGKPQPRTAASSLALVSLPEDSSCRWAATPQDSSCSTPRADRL

P2Y6 = P2Y6 (Homo sapiens, UniProt Q15077); conditions: cited from earlier work
Chain of P2Y6 (Q15077 whole entry, species assumed): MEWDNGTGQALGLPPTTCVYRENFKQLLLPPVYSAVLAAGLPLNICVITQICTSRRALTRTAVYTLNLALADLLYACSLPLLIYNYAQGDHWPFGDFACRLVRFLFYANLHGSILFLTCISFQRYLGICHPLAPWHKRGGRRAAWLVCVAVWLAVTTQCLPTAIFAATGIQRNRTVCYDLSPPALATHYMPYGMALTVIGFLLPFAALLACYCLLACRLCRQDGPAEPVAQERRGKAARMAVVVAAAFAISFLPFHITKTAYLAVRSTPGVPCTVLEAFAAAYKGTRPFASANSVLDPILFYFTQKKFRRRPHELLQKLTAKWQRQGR

[3] = target: T5, adenylyl cyclase-linked P2Y receptor in C6 glioma cells (Rattus norvegicus, UniProt Q9EPX4); conditions: cited from earlier work
T5 construct: at the adenylyl cyclase-linked P2Y receptor in C6 glioma cells; host or cells: C6 glioma cells (endogenous receptor)
T5 sequence (Q9EPX4 whole entry): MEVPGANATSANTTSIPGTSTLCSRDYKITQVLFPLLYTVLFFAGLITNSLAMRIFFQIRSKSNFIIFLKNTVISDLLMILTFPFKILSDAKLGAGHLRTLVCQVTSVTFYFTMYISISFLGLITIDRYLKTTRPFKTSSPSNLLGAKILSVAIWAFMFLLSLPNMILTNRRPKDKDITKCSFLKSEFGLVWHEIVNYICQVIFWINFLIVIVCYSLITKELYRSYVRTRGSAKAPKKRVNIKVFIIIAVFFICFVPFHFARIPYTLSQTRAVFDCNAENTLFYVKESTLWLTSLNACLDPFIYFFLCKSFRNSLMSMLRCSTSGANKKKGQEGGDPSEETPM

[4] = system: novel avian P2Y receptor that inhibits adenylyl cyclase; conditions: cited from earlier work

Row | % displacement, rA1 (rat A1 receptors; rat A1 receptors, at 100 μM) | Ki (A2A receptors) | % displacement, hA2B (human A2B receptor) | Ki (human A3 receptors) | A1/A3 (human A3 receptors) | substrate of ADA, fold less ([1]; 5d compared with 5c) | relative rates of deamination [1] | Ki (rat A1 receptors; rat A1 receptors, read-out: K1 (nM), rA1) | fold more potent than aristeromycin, 5b, in binding to A1 (rat A1 receptors; versus 5b) | ratio of affinities of N- to S-analogues at the A3 receptor (human A3 receptors; 5c versus 5d, human A3 receptor) | fold more potent than aristeromycin, 5b, in binding to A3 (human A3 receptors; versus 5b) | Structure (SMILES) | Kb [2] | EC50 (P2X1 receptors) | activity at P2Y2 (P2Y2) | activity at P2Y4 (P2Y4) | activity at P2Y6 (P2Y6) | activity at adenylyl cyclase-linked P2Y receptor in C6 glioma cells [3] | activity at novel avian P2Y receptor [4]
1 | 15% at 100 μM | > 100000 nM | 20 ± 4% at 50 μM^f | 62500 nM | >1 | 100 fold | 0.010 | – | – | – | – | Nc1ncnc2c1ncn2C12CC1C(CO)C(O)C2O (racemic) [Compound 5d] | – | – | – | – | – | – | –
2 | – | – | – | – | – | – | – | – | – | – | – | CNc1ncnc2c1ncn2[C@H]1C[C@H](OP(=O)(O)O)[C@@H](COP(=O)(O)O)O1 [Compound 1a, N6-methyl-2′-deoxyadenosine-3′,5′-bisphosphate] | ~100 nM | 1200 nM | inactive | inactive | inactive | inactive | inactive
3 | – | 22500 nM | 35 ± 2% at 50 μM^f | 404 ± 70 nM | 4.2 | – | 0.58 | 1680 ± 80 nM | 4 fold | 150 fold | 4500 fold | Nc1ncnc2c1ncn2C1C(O)C(O)C2(CO)CC12 (centres unmarked) [Compound 5c, 4-(6-amino-purin-9-yl)-1-hydroxymethyl-bicyclo[3.1.0]hexane-2,3-diol] | – | – | – | – | – | – | –
